Paper PMC11775033, “Toxicokinetics of benzotriazole UV stabilizer UV-P in humans after single oral administration” (Archives of Toxicology, 2024)
“And” between values parts separate entries of the source, which are not always exact repeats. Equal values may be shown once. Read-outs that look alike come from different tables or passages of the source.

Experiments:
[1] = cited from earlier work
[2] = human, cited from earlier work
[3] = tested on: aryl hydrocarbon receptor; design: method as in ref Fent et al. [2014]; Kubota et al. [2022]; Liang et al. [2023]; Nagayoshi et al. [2015]; conditions: ref Fent et al. [2014]; Kubota et al. [2022]; Liang et al. [2023]; Nagayoshi et al. [2015]; cited from earlier work
human serum albumin = tested on: human serum albumin; design: method as in Zhuang et al. [2016]; conditions: ref Zhuang et al. [2016]; cited from earlier work
[4] = design: method as in ref Fent et al. [2014]; Zhuang et al. [2017]; Sakuragi et al. [2021]; conditions: in vivo studies; ref Fent et al. [2014]; Zhuang et al. [2017]; Sakuragi et al. [2021]; cited from earlier work
[5] = design: method as in ref Arisu et al. [1992]; Björkner and Niklasson [1997]; Niklasson and Björkner [1989]; conditions: ref Arisu et al. [1992]; Björkner and Niklasson [1997]; Niklasson and Björkner [1989]; cited from earlier work
rats = tested on: rats; design: method as in OECD [2017]; conditions: ref OECD [2017]; cited from earlier work
[6] = Renal excretion kinetics of UV-P in urine after single oral administration (human volunteer study); assay type: in vivo; conditions: for half-life: oral, 0.3 mg/kg body weight
Protocol: Three healthy volunteers (two men and one person) aged between 23 and 57 years were included in the study. […] The NOAEL was used as a starting point and a safety factor of 100 was applied. As a result, 0.3 mg/kg body weight was administered to each participant.
(§1) One blood and one urine sample were collected from each study participant prior to the oral administration of UV-P to determine potential background exposure. 14–27 mg of UV-P (see Table 1) were weighed onto a small piece of bread with butter, which was then consumed by the volunteers. From Subject 1, urine and blood samples were collected up to 72 h post-application. From the other two subjects, samples of urine and blood were collected up to 48 h post-application. The participants collected all urine voids in separate containers. Sampling times and volumes were recorded for each sample. The urine samples were aliquoted and stored at − 20 °C until analysis. 9 ml of blood were drawn from peripheral veins 1 h, 2 h, 3 h, 4 h, 5 h, 6 h, 10 h, 24 h, and 48 h after exposure and collected in EDTA-Monovettes®. From Subject 1, additional blood samples were drawn 8 h, 12 h, 32 h, and 72 h after exposure. Blood samples were stored at – 20 °C until analysis.
The preparation and processing of urine samples was based on a method published by Fischer and Göen ([2021]). However, a few modifications were made. The samples were thawed at room temperature, thoroughly mixed, and subsequently centrifuged at 1600 × g for 2 min. 200 µl of the supernatant were transferred into a 10-ml glass, conical-bottomed centrifuge tube. 800 µl of water, 10 µl of the internal-standard spiking solution (10 mg/l of d4-UV-P in acetonitrile), and 1 ml of sodium acetate buffer (0.4 M, pH 5.0) were added to the samples. After vortex-mixing, 10 µl of β-glucuronidase/arylsulfatase from H. pomatia were added and the samples were briefly vortex-mixed. Enzymatic hydrolysis was performed at 37 °C for 16 h. Afterwards, 2 ml of water, 700 µl of isopropanol, and 400 µl of chloroform were added. The samples were vortex-mixed for 30 s and centrifuged at 2300 × g for 15 min. The lower organic phases were pipetted into 1.8-ml glass vials and evaporated to dryness, followed by the addition of 40 µl of toluene and 40 µl of BSA/TMCS. The samples were vortex-mixed and derivatized at room temperature for 10 min. Afterwards, 20 µl of 5% (v/v) TSIM were added. The samples were vortex-mixed and transferred into the micro-inserts of 1.8-ml glass vials. Finally, the samples were heated to 40 °C for 1 h and analyzed by GC–MS/MS.
A nine-point calibration curve in the range of 10–5000 µg/l was applied for the analysis of the in vivo study samples. For calibration, two analyte spiking solutions containing 50 mg/l and 2 mg/l of UV-P were prepared in acetonitrile.
The urinary creatinine content of the study samples was determined photometrically by the Jaffé’s method (Larsen [1972]). To quantify the unconjugated form of UV-P, the urine samples of one study participant were additionally processed without the addition of β-glucuronidase/arylsulfatase from H. pomatia and incubation at 37 °C.
Renal excretion rates (RE, in µg/h) of UV-P at a certain point in time were calculated by the following equation: RE=ci×vi/ti-ti-1 where ci (in µg/l) is the concentration of UV-P in the urine sample i, vi (in l) is the volume of the respective urine sample, ti (in h) is the elapsed time value of sample collection, and ti–1 (in h) is the elapsed time value of the previous sample collection.

[7] = Kinetics of UV-P in blood after single oral administration (human volunteer study); assay type: in vivo; conditions: for half-life: po, 0.3 mg/kg; for Tmax: oral, post-exposure, read-out: time of maximum blood levels
Protocol: Three healthy volunteers (two men and one person) aged between 23 and 57 years were included in the study. The administered dose of UV-P was calculated with respect to an adequate distance from the no-observed-adverse-effect level (NOAEL) determined in toxicological studies in rats (30 mg/kg body weight per day) (OECD [2017]). The NOAEL was used as a starting point and a safety factor of 100 was applied. As a result, 0.3 mg/kg body weight was administered to each participant.
as §1
The preparation and processing of the blood samples was based on a previously published method (Fischer and Göen [2023]). The samples were stored at – 20 °C until analysis. The samples were thawed at room temperature and mixed on a roller mixer. 1 ml of each sample was pipetted into a separate 6-ml glass vial. 20 µl of the d4-UV-P spiking solution [1000 µg/l of d4-UV-P in a mixture of 0.9% NaCl solution and acetonitrile (v/v, 9:1)] was added. 1 ml of acetonitrile was added to the samples, which were then vortex-mixed for 1 min and centrifuged at 4000 × g for 15 min at room temperature. The supernatants were transferred to clean 6-ml glass vials. 0.5 ml of sodium acetate buffer (0.4 M, pH 5.0) and 10 µl of β-glucuronidase/arylsulfatase from H. pomatia were added. After brief vortex-mixing, the samples were incubated at 37 °C for 16 h. After incubation, the samples were transferred to conical-bottomed centrifuge tubes and diluted with 2.5 ml of water. 1 ml of acetonitrile and 700 µl of chloroform were added and the samples were vortex-mixed for 30 s and centrifuged at 2500 × g for 15 min. The lower organic phases were pipetted into separate 1.8-ml glass vials and evaporated to dryness, followed by the addition of 40 µl of toluene and 40 µl of BSA/TMCS. The samples were vortex-mixed and derivatized at room temperature for 10 min. Afterwards, 20 µl of 5% (v/v) TSIM were added. The samples were vortex-mixed and transferred into the micro-inserts of 1.8-ml glass vials. Finally, the samples were heated to 40 °C for 1 h and analyzed by GC–MS/MS.
A seven-point calibration curve in the range of 0.5–150 µg/l was applied. Calibration standards were prepared by spiking human blood with various volumes of the UV-P spiking solutions containing 1000 µg/l or 100 µg/l of UV-P in a mixture of 0.9% NaCl solution and acetonitrile (v/v, 9:1). One sample each of Qlow (low-concentration quality-control material; 1 µg/l) and Qhigh (high-concentration quality-control material; 30 µg/l) was processed analogously to the samples in each analytical run. A reagent-blank sample, containing water instead of blood, was included in each analytical run as well. Any blank values were subtracted from the analytical results. The reliability criteria of the method are given in the Supplementary Information. […]

For `CCC(C)(C)c1cc(-n2nc3ccccc3n2)c(O)c(C(C)(C)CC)c1` [UV-328, 2-(2H-benzotriazol-2-yl)-4,6-di-tert-pentylphenol], the “share of ingested amount excreted via urine as parent compound” value ([1]; accumulated until 72 h post-exposure, ref Denghel et al. [2021], Fischer et al. [2023]) is listed as 0.001%, the “share of conjugation of renally eliminated compound” value ([1]; human urine, ref Denghel et al. [2021], Fischer et al. [2023]) is listed as 16% and the “sum of renally eliminated parent compound and metabolites” value ([1]; share of ingested amount, ref Denghel et al. [2021], Fischer et al. [2023]) is listed as 0.12%. For the same compound, the “time of maximum concentrations in blood (average)” value ([2]; after oral administration, ref Fischer et al. [2023], Denghel et al. [2021]) was 8 h.
In the case of `CC(C)(C)c1cc(-n2nc3ccc(Cl)cc3n2)c(O)c(C(C)(C)C)c1` [UV-327], the “sum of renally eliminated parent compound and metabolites” value ([1]; in vivo) is given as 0.03% and the “time of maximum concentrations in blood (average)” value ([2]; in vivo, po) is given as 6 h.
In the case of `Cc1ccc(O)c(-n2nc3ccccc3n2)c1` [UV-P, 2-(2H-Benzotriazol-2-yl)-p-cresol], the “activation of the aryl hydrocarbon receptor” value [3] is listed as “activates”, the “binding to human serum albumin” value (human serum albumin) is listed as “bind” and the “endocrine effects in vivo” value [4] is listed as “no indication of endocrine effects”. The allergic contact dermatitis [5] was “cause allergic contact dermatitis”, the “no-observed-adverse-effect level (NOAEL)” value (rats) was 30 mg/kg body weight per day and the “orally administered dose recovered in urine within 72 h” value ([6]; Subject 1 only, 72 h) was 44.9%. For the same compound, the “time at which cumulative amount excreted via urine reached a plateau” value ([6]; after exposure, Subject 1 (Figure SI-3)) was “about 24 h”, the half-life ([6]; both sexes, human, urine, human urine, first phase until 7 h post-administration, n = 3, mean ± SD (range), read-out: t1/2—Phase 1 (renal excretion) (converted)) was 0.7 ± 0.2 h and the half-life ([6]; both sexes, human, urine, human urine, second elimination phase, n = 3, mean ± SD (range), read-out: t1/2—Phase 2 (renal excretion) (converted)) was 6.6 ± 1.1 h. The Tmax ([6]; both sexes, human, urine, po, 0.3 mg/kg, human urine, single oral 0.3 mg/kg, n = 3, mean ± SD (range), read-out: tmax (timepoint of maximum renal excretion rate)) was 3.5 ± 1.1 h, the “FUE after 6 h (urinary excretion factor, % of dose)” value ([6]; human urine, 6 h, n = 3, mean ± SD (range)) was 26.7–33.2% and the “FUE after 12 h (urinary excretion factor, % of dose)” value ([6]; human urine, 12 h, n = 3, mean ± SD (range)) was 30.4–40.2%. The “FUE after 24 h (urinary excretion factor, % of dose)” value ([6]; human urine, 24 h, n = 3, mean ± SD (range)) was 31.7–43.3%, the “FUE after 48 h (urinary excretion factor, % of dose)” value ([6]; human urine, 48 h, n = 3, mean ± SD (range)) was 37.2 ± 5.4% and 32.0–44.7% and 32–45% and 37% and the “REmax (maximum renal excretion rate)” value ([6]; human urine, single oral 0.3 mg/kg body weight, with enzymatic hydrolysis, n = 3, mean ± SD (range), 0.3 mg/kg) was 2896 ± 884 µg/h and 2896 ± 885 µg/h. The “tmax (timepoint of maximum renal excretion rate)” value ([6]; human urine, single oral 0.3 mg/kg, n = 3, mean ± SD (range), 0.3 mg/kg) was 2.6 to 5.0 h and 3 to 5 h, the half-life ([7]; both sexes, human, whole blood, human blood, single oral 0.3 mg/kg, first phase up to 6 h, n = 3, mean ± SD (range), read-out: t1/2—Phase 1 (blood) (converted)) was 1.3 ± 0.1 h and the half-life ([7]; both sexes, human, whole blood, human blood, single oral 0.3 mg/kg, second phase, n = 3, mean ± SD (range), read-out: t1/2—Phase 2 (blood) (converted)) was 7.7 ± 1.1 h. It also gave a concentration at 6 h ([7]; both sexes, human, whole blood, 6 h post-exposure, single oral 0.3 mg/kg, n = 3, read-out: mean blood level of UV-P) of 44 ± 30 ng/mL, a concentration at 24 h ([7]; both sexes, human, whole blood, 24 h post-exposure, single oral 0.3 mg/kg, n = 3, read-out: mean blood level of UV-P) of 2.5 ± 1.3 ng/mL and a concentration at 48 h ([7]; both sexes, human, whole blood, 48 h post-exposure, single oral 0.3 mg/kg, n = 3, read-out: mean blood level of UV-P) of 0.7 ± 0.7 ng/mL. It also gave a Cmax ([7]; both sexes, whole blood, human blood, single oral 0.3 mg/kg body weight, with enzymatic hydrolysis, n = 3, mean ± SD (range), read-out: cmax (maximum level of UV-P in blood)) of 184 ± 36 ng/mL, a concentration at 72 h ([7]; human, whole blood, 0.3 mg/kg body weight, 72 h after oral administration, Subject 1 only, read-out: blood level of UV-P) of 0.45 ng/mL and a Tmax ([7]; human, whole blood, 0.3 mg/kg body weight, third subject (Subject 1)) of 4 h. The Tmax ([7]; human, whole blood, 0.3 mg/kg body weight, two of the subjects (Subjects 2 and 3)) was 1 to 2 h, the “slope of linear fit, blood levels without vs with hydrolysis (unconjugated share)” value ([7]; subject 1) was 0.133 and the “slope of linear fit, blood levels without vs with hydrolysis (unconjugated share)” value ([7]; subject 2) was 0.196. For the same compound, the “slope of linear fit, blood levels without vs with hydrolysis (unconjugated share)” value ([7]; subject 3) was 0.135.
